Data: publication PMC4850841 (Journal of medicinal chemistry, 2013)
Where two headings read alike, the source gives them in different places. Values belong to the compound of their own block, whether it stands above or below them.

Assays:
[1] = biological target: GluN1/GluN2A (Rattus norvegicus, UniProt Q00959); test: Two electrode voltage clamp recordings, Xenopus laevis oocytes; type: cell-based; details: 100 µM glutamate, 30 µM glycine
[2] = biological target: GluN1/GluN2B (Rattus norvegicus, UniProt Q00960); test: as above; type: cell-based; details: 100 µM glutamate, 30 µM glycine
Chain of GluN1/GluN2B (Q00960 27-1482, other chains not shown): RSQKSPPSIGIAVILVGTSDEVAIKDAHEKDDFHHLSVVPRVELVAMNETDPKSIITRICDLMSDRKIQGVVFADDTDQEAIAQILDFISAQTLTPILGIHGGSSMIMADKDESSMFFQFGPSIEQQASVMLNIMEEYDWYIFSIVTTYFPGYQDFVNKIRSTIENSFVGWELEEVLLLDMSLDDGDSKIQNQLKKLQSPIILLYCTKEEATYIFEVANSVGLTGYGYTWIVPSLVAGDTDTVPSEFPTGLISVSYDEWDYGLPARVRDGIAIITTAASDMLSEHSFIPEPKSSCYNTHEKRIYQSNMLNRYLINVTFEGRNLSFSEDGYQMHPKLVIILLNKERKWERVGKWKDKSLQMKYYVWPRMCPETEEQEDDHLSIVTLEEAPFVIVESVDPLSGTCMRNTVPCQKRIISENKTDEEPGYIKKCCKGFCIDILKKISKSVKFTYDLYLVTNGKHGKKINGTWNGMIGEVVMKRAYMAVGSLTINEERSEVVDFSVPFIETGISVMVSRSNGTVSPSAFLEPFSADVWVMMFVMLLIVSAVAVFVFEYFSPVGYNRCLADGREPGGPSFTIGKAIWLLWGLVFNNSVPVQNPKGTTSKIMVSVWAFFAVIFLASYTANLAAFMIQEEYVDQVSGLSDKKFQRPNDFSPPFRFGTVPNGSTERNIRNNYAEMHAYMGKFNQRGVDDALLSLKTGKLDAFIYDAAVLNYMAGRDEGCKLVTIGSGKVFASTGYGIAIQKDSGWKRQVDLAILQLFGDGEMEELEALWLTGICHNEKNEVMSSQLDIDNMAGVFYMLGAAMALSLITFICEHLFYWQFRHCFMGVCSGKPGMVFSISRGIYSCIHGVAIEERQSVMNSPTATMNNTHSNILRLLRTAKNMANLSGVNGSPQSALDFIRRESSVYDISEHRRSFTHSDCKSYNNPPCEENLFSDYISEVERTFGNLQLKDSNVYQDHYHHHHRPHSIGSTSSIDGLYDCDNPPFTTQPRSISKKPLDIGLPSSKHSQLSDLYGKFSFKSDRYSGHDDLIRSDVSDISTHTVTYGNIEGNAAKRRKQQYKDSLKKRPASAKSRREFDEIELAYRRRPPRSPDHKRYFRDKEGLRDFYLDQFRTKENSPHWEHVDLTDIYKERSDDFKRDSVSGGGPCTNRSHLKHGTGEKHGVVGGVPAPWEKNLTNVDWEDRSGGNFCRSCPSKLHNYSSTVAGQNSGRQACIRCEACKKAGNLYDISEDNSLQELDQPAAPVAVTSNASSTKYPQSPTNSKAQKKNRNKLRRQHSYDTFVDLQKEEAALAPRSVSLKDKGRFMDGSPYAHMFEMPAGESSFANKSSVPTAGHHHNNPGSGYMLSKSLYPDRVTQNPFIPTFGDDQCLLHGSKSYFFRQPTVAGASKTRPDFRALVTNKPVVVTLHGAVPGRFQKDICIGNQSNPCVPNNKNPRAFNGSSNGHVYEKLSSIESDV

[3] = biological target: GluA1 (Rattus norvegicus, UniProt P19490); test: as above; type: cell-based; details: co-applied with 100 µM glutamate
Chain of GluA1 (P19490 19-907): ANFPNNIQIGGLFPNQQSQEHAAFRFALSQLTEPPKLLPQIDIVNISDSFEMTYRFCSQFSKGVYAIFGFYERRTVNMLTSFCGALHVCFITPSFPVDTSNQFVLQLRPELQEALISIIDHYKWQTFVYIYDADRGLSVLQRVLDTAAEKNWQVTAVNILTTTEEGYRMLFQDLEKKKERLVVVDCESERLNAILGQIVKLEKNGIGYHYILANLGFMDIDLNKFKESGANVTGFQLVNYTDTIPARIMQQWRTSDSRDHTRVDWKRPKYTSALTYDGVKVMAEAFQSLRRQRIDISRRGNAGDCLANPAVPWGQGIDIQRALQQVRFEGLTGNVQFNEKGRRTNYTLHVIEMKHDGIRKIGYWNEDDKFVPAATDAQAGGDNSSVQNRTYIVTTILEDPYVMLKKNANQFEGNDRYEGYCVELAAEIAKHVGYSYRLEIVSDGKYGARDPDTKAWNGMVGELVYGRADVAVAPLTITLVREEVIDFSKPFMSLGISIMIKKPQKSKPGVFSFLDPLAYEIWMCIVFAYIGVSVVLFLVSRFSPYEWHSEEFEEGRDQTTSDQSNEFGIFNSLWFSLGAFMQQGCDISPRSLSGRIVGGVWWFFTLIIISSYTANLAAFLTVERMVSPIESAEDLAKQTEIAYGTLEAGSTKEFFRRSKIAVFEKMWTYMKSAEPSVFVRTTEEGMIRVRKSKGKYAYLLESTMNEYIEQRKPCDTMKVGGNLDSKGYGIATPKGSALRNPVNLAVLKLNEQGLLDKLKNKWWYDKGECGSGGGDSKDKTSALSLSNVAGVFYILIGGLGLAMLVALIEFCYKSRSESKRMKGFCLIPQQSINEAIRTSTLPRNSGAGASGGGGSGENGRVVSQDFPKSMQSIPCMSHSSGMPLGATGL

[4] = biological target: GluK2 (Rattus norvegicus, UniProt P42260); test: as above; type: cell-based; details: co-applied with 100 µM glutamate
[5] = test system: GluN2C/D-containing NMDA receptors; test: Potentiation of NMDA receptors, results stated jointly for both subtypes; type: cell-based, rat; details: for EC50: read-out: EC50, GluN2C/GluN2D stated jointly
[6] = biological target: GluN1/GluN2C (Rattus norvegicus, UniProt P35439+Q00961); test: Two electrode voltage clamp recordings, Xenopus laevis oocytes; type: cell-based
[7] = Stability of potentiator activity of compound solution; type: physicochemical
[8] = test system: GluN2C/D-containing NMDA receptors; details: cited from earlier work
[9] = biological target: GluN1/GluN2C (Rattus norvegicus, UniProt Q00961); test: Two electrode voltage clamp recordings, Xenopus laevis oocytes; type: cell-based; details: for activity at GluN1/GluN2C: 100 µM glutamate, 30 µM glycine
[10] = biological target: GluN1/GluN2D (Rattus norvegicus, UniProt Q62645); test: as above; type: cell-based; details: for activity at GluN1/GluN2D: 100 µM glutamate, 30 µM glycine
Chain of GluN1/GluN2D (Q62645 28-1323, other chains not shown): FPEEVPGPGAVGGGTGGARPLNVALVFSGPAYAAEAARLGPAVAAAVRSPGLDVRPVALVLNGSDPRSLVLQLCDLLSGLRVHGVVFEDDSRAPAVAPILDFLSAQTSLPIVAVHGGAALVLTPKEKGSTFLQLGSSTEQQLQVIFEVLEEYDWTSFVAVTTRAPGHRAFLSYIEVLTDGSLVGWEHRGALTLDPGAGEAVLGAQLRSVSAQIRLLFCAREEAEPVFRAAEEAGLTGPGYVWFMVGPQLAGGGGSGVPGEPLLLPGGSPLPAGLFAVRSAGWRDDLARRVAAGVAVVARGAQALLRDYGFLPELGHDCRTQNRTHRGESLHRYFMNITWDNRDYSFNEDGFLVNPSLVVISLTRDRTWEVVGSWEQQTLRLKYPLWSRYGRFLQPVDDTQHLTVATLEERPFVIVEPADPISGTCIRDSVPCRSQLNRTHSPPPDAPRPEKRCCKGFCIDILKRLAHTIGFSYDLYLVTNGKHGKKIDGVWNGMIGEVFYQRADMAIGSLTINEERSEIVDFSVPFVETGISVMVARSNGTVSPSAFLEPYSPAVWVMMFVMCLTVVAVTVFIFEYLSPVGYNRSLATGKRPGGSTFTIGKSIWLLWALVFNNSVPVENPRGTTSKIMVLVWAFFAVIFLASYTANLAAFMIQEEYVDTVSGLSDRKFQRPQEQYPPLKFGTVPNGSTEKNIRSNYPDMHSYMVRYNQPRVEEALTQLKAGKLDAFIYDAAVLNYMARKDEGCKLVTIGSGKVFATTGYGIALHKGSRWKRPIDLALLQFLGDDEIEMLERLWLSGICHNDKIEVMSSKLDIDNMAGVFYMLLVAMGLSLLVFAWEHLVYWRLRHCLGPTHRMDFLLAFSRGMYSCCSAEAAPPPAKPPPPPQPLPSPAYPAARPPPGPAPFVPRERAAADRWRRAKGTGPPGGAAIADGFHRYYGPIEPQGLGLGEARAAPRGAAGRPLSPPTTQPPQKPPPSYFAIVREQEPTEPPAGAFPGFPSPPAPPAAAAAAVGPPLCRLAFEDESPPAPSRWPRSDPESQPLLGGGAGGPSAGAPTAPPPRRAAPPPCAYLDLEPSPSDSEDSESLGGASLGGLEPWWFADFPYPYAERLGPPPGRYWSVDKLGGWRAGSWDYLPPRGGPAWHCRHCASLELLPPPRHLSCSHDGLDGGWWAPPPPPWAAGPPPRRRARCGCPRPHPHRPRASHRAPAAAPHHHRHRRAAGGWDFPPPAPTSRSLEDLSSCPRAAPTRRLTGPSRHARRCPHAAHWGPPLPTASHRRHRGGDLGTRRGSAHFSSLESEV

[11] = test system: GABA, glycine, serotonin, nicotinic acetylcholine, AMPA, kainate, and purinergic receptors; type: cell-based
[12] = biological target: κ opioid receptors (Homo sapiens, UniProt P41145); type: binding; details: 5 µM compound 83
[13] = test system: brain benzodiazepine site; type: binding; details: 5 µM compound 83; n=4
[14] = test system: peripheral benzodiazepine site; type: binding; details: 5 µM compound 83; n=4
[15] = test system: sigma receptor σ1; type: binding; details: 5 µM compound 83; n=4
[16] = test system: sigma receptor σ2; type: binding; details: 5 µM compound 83; n=4
[17] = maximally effective concentrations of glutamate and glycine
[18] = 10 µM compound co-applied with 100 µM glutamate and 30 µM glycine

Chain of GluN1/GluN2A (Q00959 23-1464, other chains not shown): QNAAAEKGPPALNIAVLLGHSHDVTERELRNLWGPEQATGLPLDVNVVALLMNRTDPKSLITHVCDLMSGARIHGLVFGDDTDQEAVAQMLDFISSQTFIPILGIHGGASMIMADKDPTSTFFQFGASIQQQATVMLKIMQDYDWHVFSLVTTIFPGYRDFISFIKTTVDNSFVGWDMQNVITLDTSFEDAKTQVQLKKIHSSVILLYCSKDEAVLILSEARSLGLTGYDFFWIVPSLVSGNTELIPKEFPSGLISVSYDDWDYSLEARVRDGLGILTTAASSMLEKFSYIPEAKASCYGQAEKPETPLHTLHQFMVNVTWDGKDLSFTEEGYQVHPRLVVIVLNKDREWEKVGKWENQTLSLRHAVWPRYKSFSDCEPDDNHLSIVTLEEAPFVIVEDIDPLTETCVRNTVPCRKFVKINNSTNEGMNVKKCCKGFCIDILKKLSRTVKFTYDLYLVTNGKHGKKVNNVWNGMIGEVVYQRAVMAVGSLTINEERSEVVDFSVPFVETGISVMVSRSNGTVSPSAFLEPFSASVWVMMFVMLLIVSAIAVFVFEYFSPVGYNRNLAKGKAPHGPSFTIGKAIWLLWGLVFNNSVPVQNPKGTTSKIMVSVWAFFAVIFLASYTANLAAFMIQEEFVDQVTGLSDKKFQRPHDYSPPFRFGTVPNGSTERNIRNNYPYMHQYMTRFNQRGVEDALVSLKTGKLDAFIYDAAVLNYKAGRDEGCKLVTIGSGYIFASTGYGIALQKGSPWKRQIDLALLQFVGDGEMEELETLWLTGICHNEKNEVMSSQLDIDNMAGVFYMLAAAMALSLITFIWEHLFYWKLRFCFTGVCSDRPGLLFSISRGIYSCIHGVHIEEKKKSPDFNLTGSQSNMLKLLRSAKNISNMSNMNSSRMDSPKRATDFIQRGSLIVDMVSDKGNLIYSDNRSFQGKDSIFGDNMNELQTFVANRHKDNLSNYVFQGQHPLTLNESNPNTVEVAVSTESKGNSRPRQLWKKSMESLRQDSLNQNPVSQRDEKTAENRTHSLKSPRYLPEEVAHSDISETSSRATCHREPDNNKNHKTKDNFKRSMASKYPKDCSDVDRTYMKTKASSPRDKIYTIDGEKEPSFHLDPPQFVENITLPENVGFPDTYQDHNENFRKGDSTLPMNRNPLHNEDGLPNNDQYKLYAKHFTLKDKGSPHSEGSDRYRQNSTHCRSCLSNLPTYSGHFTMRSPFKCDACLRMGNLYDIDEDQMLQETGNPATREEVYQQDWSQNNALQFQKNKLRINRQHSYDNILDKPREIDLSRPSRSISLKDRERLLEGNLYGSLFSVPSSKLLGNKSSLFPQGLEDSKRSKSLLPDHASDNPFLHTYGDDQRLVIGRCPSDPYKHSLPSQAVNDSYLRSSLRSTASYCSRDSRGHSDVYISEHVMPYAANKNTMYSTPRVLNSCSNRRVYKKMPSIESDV

Compound: COc1ccc(OC[C@@H]2c3cc(OC)c(OC)cc3CCN2C(=O)c2cccc(Cl)c2)cc1 [2-S, (S)-(3-chlorophenyl)(6,7-dimethoxy-1-((4-methoxyphenoxy)methyl)-3,4-dihydroisoquinolin-2(1H)-yl)methanone]
- effect on GluN1/GluN2A responses [1]: no effect
- effect on GluN1/GluN2B responses [2]: no effect

Compound: COc1ccc(OCC2c3cc(OC)c(OC)cc3CCN2C(=O)c2ccccc2)cc1 (stereo not shown) [compound 1, (6,7-dimethoxy-1-((4-methoxyphenoxy)methyl)-3,4-dihydroisoquinolin-2(1H)-yl)(phenyl)methanone]
- effect on homomeric GluA1 responses [3]: no effects
- effect on GluK2-mediated currents [4]: no effect
- enhancement of response of GluN2C/D-containing NMDA receptors [5, 17]: 1.5 fold
- agonist activity on their own ([5]; without co-agonists): no agonist activity

Compound: COc1ccc(OCC2c3cc(OC)c(OC)cc3CCN2C(=O)c2cccc(Cl)c2)cc1 (stereo not shown) [compound 2]
- EC50 [6]: 4.6 µM
- effect on homomeric GluA1 responses [3]: no effects
- effect on GluK2-mediated currents [4]: no effect
- EC50 [5, 17]: 4.6 to 5 µM
- activity of solution after 24 hours ([7]; 24 hours after making the solution): no activity
- activity (potency and efficacy) retained without loss until ([7]; compound solutions tested on GluN1/GluN2C in BHK cells at different time points): 6 h
- enhancement of receptor responses [8]: less than 2 fold
- EC50 ([8]; read-out: reported EC50): 3 µM

Compound: COc1cc2c(cc1OC)CN(C(=O)c1ccccc1)CC2 [compound 5, (6,7-dimethoxy-3,4-dihydroisoquinolin-2(1H)-yl)(phenyl)methanone]
- activity at GluN1/GluN2C [9]: inactive
- activity at GluN1/GluN2D [10]: inactive
- effect on GluN1/GluN2A responses [1]: inactive
- effect on GluN1/GluN2B responses [2]: inactive
- effect on homomeric GluA1 responses [3]: no effects

Compound: COc1cc2c(cc1OC)CN(C(=O)c1cccc(Cl)c1)CC2 [compound 6, (3-chlorophenyl)(6,7-dimethoxy-3,4-dihydroisoquinolin-2(1H)-yl)methanone]
- activity at GluN1/GluN2C [9]: inactive
- activity at GluN1/GluN2D [10]: inactive
- effect on GluN1/GluN2A responses [1]: inactive
- effect on GluN1/GluN2B responses [2]: inactive

Compound: COc1cc2c(cc1OC)CN(C(=O)c1cccc(Br)c1)CC2 [compound 7, (3-bromophenyl)(6,7-dimethoxy-3,4-dihydroisoquinolin-2(1H)-yl)methanone]
- activity at GluN1/GluN2C [9]: inactive
- activity at GluN1/GluN2D [10]: inactive
- effect on GluN1/GluN2A responses [1]: inactive
- effect on GluN1/GluN2B responses [2]: inactive

Compound: COc1ccc(OCC2c3ccc(OCc4ccccc4)cc3CCN2C(=O)c2cccc(Br)c2)cc1 (stereo not shown) [compound 83, (6-(benzyloxy)-1-((4-methoxyphenoxy)methyl)-3,4-dihydroisoquinolin-2(1H)-yl)(3-bromophenyl)methanone]
- EC50 [5, 17]: 0.3 to 0.4 µM
- selectivity for GluN2C or GluN2D compared to these receptors [11]: approximately 100 fold
- inhibition of off-target receptors ([11]; 3 µM compound 83): less than 10%
- potentiation of off-target receptors ([11]; 3 µM compound 83): < 5%
- initial screen at κ opioid receptors [12]: significant inhibition
- inhibition of ligand binding [13]: less than 50%
- inhibition of ligand binding [14]: less than 50%
- inhibition of ligand binding [15]: less than 50%
- inhibition of ligand binding [16]: less than 50%

Compound: (1-((4-(benzyloxy)phenoxy)methyl)-6,7-dimethoxy-3,4-dihydroisoquinolin-2(1H)-yl)(3-chlorophenyl)methanone [compound 109]
- I10 µM / ICONTROL (mean ± SEM, %) GluN2C [9, 18]: 93 ± 1.6%
- I10 µM / ICONTROL (mean ± SEM, %) GluN2D [10, 18]: 93 ± 2.5%
- activity on GluN2C- or GluN2D-containing receptors [5]: no detectable activity

Other lines, results leading:

- effect on homomeric GluA1 responses [3]: no effects
- effect on GluK2-mediated currents [4]: no effect
Compound: COc1ccc(OCC2c3cc(OC)c(OC)cc3CCN2C(=O)c2cccc(Br)c2)cc1 (stereo not shown) [compound 190]

- effect on homomeric GluA1 responses [3]: no effects
- effect on GluK2-mediated currents [4]: no effect
Compound: COc1ccc(OCC2c3cc(OC)c(OC)cc3CCN2C(=O)c2cccc(F)c2)cc1 (stereo not shown) [compound 197]

- activity at GluN1/GluN2C [9]: weak activity
- activity at GluN1/GluN2D [10]: no or minimal potentiating effects
Compound: COc1ccc(OCC2c3cc(OC)c(OC)cc3CCN2C(=O)c2cccs2)cc1 (stereo not shown) [compound 203]

- activity at GluN1/GluN2C [9]: weakly active
Compound: COC(=O)c1ccc(OCC2c3cc(OC)c(OC)cc3CCN2C(=O)c2cccc(Br)c2)cc1 (stereo not shown) [compound 207]
